Experimental data published in PubChem BioAssay (NCI).
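Tested at 5 concentrations; 48 h exposure; 96-well plates; endpoints linearly interpolated, else capped at highest concentration. Here, GI50 denotes the concentration required for 50% inhibition of growth. TGI is the concentration that stops growth completely.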

Experiments:
Test in all cases: NCI-60 cell line screen, 48 h
A549 NSCLC = system: A549 NSCLC
UACC-257 melanoma = system: UACC-257 melanoma
MOLT-4 leukemia = system: MOLT-4 leukemia
M14 melanoma = system: M14 melanoma
MCF7 breast = system: MCF7 breast
HS 578T breast = system: HS 578T breast
BT-549 breast = system: BT-549 breast
A498 renal = system: A498 renal
TK-10 renal = system: TK-10 renal
OVCAR-5 ovarian = system: OVCAR-5 ovarian
IGROV1 ovarian = system: IGROV1 ovarian
SN12C renal = system: SN12C renal
NCI/ADR-RES ovarian = system: NCI/ADR-RES ovarian
SW-620 colon = system: SW-620 colon
CAKI-1 renal = system: CAKI-1 renal
SNB-19 CNS = system: SNB-19 CNS
NCI-H522 lung = system: NCI-H522 lung
MDA-MB-231 breast = system: MDA-MB-231 breast
SK-MEL-28 melanoma = system: SK-MEL-28 melanoma
K-562 leukemia = system: K-562 leukemia
HCT-116 colon = system: HCT-116 colon
KM12 colon = system: KM12 colon
HT29 colon = system: HT29 colon
OVCAR-8 ovarian = system: OVCAR-8 ovarian
COLO 205 colon = system: COLO 205 colon
SF-268 CNS = system: SF-268 CNS
RPMI-8226 leukemia = system: RPMI-8226 leukemia
HL-60(TB) leukemia = system: HL-60(TB) leukemia
NCI-H226 lung = system: NCI-H226 lung
NCI-H460 lung = system: NCI-H460 lung
RXF 393 renal = system: RXF 393 renal
UACC-62 melanoma = system: UACC-62 melanoma
SK-OV-3 ovarian = system: SK-OV-3 ovarian
NCI-H23 lung = system: NCI-H23 lung
OVCAR-3 ovarian = system: OVCAR-3 ovarian
ACHN renal = system: ACHN renal
SK-MEL-5 melanoma = system: SK-MEL-5 melanoma
SR leukemia = system: SR leukemia
T-47D breast = system: T-47D breast
SF-539 CNS = system: SF-539 CNS
DU-145 prostate = system: DU-145 prostate
SF-295 CNS = system: SF-295 CNS
PC-3 prostate = system: PC-3 prostate
UO-31 renal = system: UO-31 renal
786-0 renal = system: 786-0 renal
SNB-75 CNS = system: SNB-75 CNS
HOP-62 NSCLC = system: HOP-62 NSCLC
HCT-15 colon = system: HCT-15 colon
MDA-MB-435 = system: MDA-MB-435
HCC-2998 colon = system: HCC-2998 colon
CCRF-CEM leukemia = system: CCRF-CEM leukemia
MALME-3M melanoma = system: MALME-3M melanoma
OVCAR-4 ovarian = system: OVCAR-4 ovarian

COc1ccc2sc3cccc(NCCN(C)C)c3c(=O)c2c1
GI50 (A549 NSCLC): 2.57 µM | TGI (A549 NSCLC): 7.15 µM | GI50 (UACC-257 melanoma): 1.78 µM | TGI (UACC-257 melanoma): 3.32 µM | GI50 (MOLT-4 leukemia): 2.5 µM | TGI (MOLT-4 leukemia): 6.01 µM | GI50 (M14 melanoma): 2 µM | TGI (M14 melanoma): 4.1 µM | GI50 (MCF7 breast): 1.76 µM | TGI (MCF7 breast): 3.9 µM | GI50 (HS 578T breast): 2.83 µM | TGI (HS 578T breast): 13.1 µM | GI50 (BT-549 breast): 5.4 µM | TGI (BT-549 breast): 18.6 µM | GI50 (A498 renal): 1.2 µM | TGI (A498 renal): 9.38 µM | GI50 (TK-10 renal): 4.06 µM | TGI (TK-10 renal): 14.3 µM | GI50 (OVCAR-5 ovarian): 3.42 µM | TGI (OVCAR-5 ovarian): 14.5 µM | GI50 (IGROV1 ovarian): 3.35 µM | TGI (IGROV1 ovarian): 11.6 µM | GI50 (SN12C renal): 3.36 µM | TGI (SN12C renal): 13.4 µM | GI50 (NCI/ADR-RES ovarian): 2.98 µM | TGI (NCI/ADR-RES ovarian): 11.3 µM | GI50 (SW-620 colon): 2.07 µM | TGI (SW-620 colon): 5.57 µM | GI50 (CAKI-1 renal): 3.72 µM | TGI (CAKI-1 renal): 15.5 µM | GI50 (SNB-19 CNS): 2.78 µM | TGI (SNB-19 CNS): 14.1 µM | GI50 (NCI-H522 lung): 2.79 µM | TGI (NCI-H522 lung): 10.1 µM | GI50 (MDA-MB-231 breast): 1.57 µM | TGI (MDA-MB-231 breast): 4.29 µM | GI50 (SK-MEL-28 melanoma): 2.26 µM | TGI (SK-MEL-28 melanoma): 5.3 µM | GI50 (K-562 leukemia): 2.37 µM | TGI (K-562 leukemia): 5.2 µM | GI50 (HCT-116 colon): 2.78 µM | TGI (HCT-116 colon): 9.69 µM | GI50 (KM12 colon): 3.72 µM | TGI (KM12 colon): 12.1 µM | GI50 (HT29 colon): 2.03 µM | TGI (HT29 colon): 4.6 µM | GI50 (OVCAR-8 ovarian): 3.3 µM | TGI (OVCAR-8 ovarian): 12.5 µM | GI50 (COLO 205 colon): 1.75 µM | TGI (COLO 205 colon): 3.42 µM | GI50 (SF-268 CNS): 3.81 µM | TGI (SF-268 CNS): 14.4 µM | GI50 (RPMI-8226 leukemia): 2.22 µM | TGI (RPMI-8226 leukemia): 5.16 µM | GI50 (HL-60(TB) leukemia): 2.16 µM | TGI (HL-60(TB) leukemia): 4.74 µM | GI50 (NCI-H226 lung): 3.34 µM | TGI (NCI-H226 lung): 14.1 µM | GI50 (NCI-H460 lung): 2.57 µM | TGI (NCI-H460 lung): 6.22 µM | GI50 (RXF 393 renal): 2.67 µM | TGI (RXF 393 renal): 9.76 µM | GI50 (UACC-62 melanoma): 1.76 µM | TGI (UACC-62 melanoma): 3.24 µM | GI50 (SK-OV-3 ovarian): 4.26 µM | TGI (SK-OV-3 ovarian): 15 µM | GI50 (NCI-H23 lung): 3.64 µM | TGI (NCI-H23 lung): 14.2 µM | GI50 (OVCAR-3 ovarian): 4.65 µM | TGI (OVCAR-3 ovarian): 16.5 µM | GI50 (ACHN renal): 2.4 µM | TGI (ACHN renal): 6.92 µM | GI50 (SK-MEL-5 melanoma): 2.45 µM | TGI (SK-MEL-5 melanoma): 6.27 µM | GI50 (SR leukemia): 2.29 µM | TGI (SR leukemia): 5.86 µM | GI50 (T-47D breast): 2.76 µM | TGI (T-47D breast): 9.78 µM | GI50 (SF-539 CNS): 3.52 µM | TGI (SF-539 CNS): 13.3 µM | GI50 (DU-145 prostate): 4.02 µM | TGI (DU-145 prostate): 13.5 µM | GI50 (SF-295 CNS): 4.61 µM | TGI (SF-295 CNS): 17.5 µM | GI50 (PC-3 prostate): 2.96 µM | TGI (PC-3 prostate): 11.4 µM | GI50 (UO-31 renal): 2.06 µM | TGI (UO-31 renal): 6.97 µM | GI50 (786-0 renal): 3.14 µM | TGI (786-0 renal): 14.5 µM | GI50 (SNB-75 CNS): 2.9 µM | TGI (SNB-75 CNS): 12.8 µM | GI50 (HOP-62 NSCLC): 3.57 µM | TGI (HOP-62 NSCLC): 10.7 µM | GI50 (HCT-15 colon): 2.24 µM | TGI (HCT-15 colon): 6.65 µM | GI50 (MDA-MB-435): 2.03 µM | TGI (MDA-MB-435): 5.07 µM | GI50 (HCC-2998 colon): 1.83 µM | TGI (HCC-2998 colon): 3.39 µM | GI50 (CCRF-CEM leukemia): 2.43 µM | TGI (CCRF-CEM leukemia): 8.39 µM | GI50 (MALME-3M melanoma): 1.95 µM | TGI (MALME-3M melanoma): 3.88 µM | GI50 (OVCAR-4 ovarian): 3.72 µM | TGI (OVCAR-4 ovarian): 16.5 µM
